According to US20260240869A1, “ANTIPSEUDOMONAL FUSIDIC ACID COMPOUNDS” (priority 2022, published 2026):
In brackets after ≈: the same amount, converted by molar mass. Like-named read-outs stand apart in the source and are kept apart here.

Tests used:
[1] = test system: P. aeruginosa PA14; experiment: MIC, P. aeruginosa PA14; assay type: cell-based, Pseudomonas aeruginosa; details: Pseudomonas aeruginosa
Procedure: (§1) Antimicrobial Susceptibility Tests. Susceptibility testing was performed in biological triplicate, using the microdilution broth method as outlined by the Clinical and Laboratory Standards Institute. Bacteria were cultured with cation-adjusted Meuller-Hinton broth (Sigma-Aldrich; catalogue number: 90922) or Luria-Bertani (LB) broth (Lennox) in round-bottom 96-well plates (Corning; catalogue number: 3788).

[2] = test system: E. coli MG1655; experiment: MIC, E. coli MG1655; assay type: cell-based; details: Escherichia coli
Procedure: as §1

[3] = test system: hyperporinated P. aeruginosa A6 efflux deficient strain (PAO1 pore-A6); experiment: microbe, parasite or virus in culture; assay type: cell-based; details: Pseudomonas aeruginosa, PAO1, read-out: MIC against PAO1 pore-A6
Procedure: as §1

[4] = test system: P. aeruginosa PAO1; experiment: DiSC3 (5) inner membrane depolarization assay; assay type: cell-based, Pseudomonas aeruginosa
[5] = Hydrolysis of prodrug in CAMH; assay type: physicochemical; details: In CAMH at 37° C.
Text: As a result, amidoxime prodrug versions containing variable amine linkers were designed (Table 8).

Structure (SMILES): CC(=O)O[C@H]1C[C@@]2(C)[C@@H](C[C@@H](O)[C@H]3[C@@]4(C)CC[C@@H](O)[C@@H](C)[C@@H]4CC[C@@]32C)/C1=C(\CCC=C(C)C)C(=O)O [FA, Fusidic acid]
- MIC ([1]; Reference strain PA14 (Table 11), read-out: MIC): > 1020 µg/mL
- MIC ([2]; MG1655, CLSI (Table 8), read-out: E. coli MG1655 MIC): 512 µg/mL (≈ 991 µM)
- MIC ([2]; MG1655, Table 9, read-out: MIC E. coli MG1655): 512 µg/mL (≈ 991 µM)
- MIC [3]: 4 µg/mL (≈ 7.74 µM)
- inner membrane depolarization (DiSC3 (5) fluorescence) [4]: did not impact membrane polarization

Structure (SMILES): CC(=O)O[C@H]1C[C@@]2(C)[C@@H](C[C@@H](O)[C@H]3[C@@]4(C)CC[C@@H](O)[C@@H](C)[C@@H]4CC[C@@]32C)/C1=C(\CCC=C(C)C)C(=O)O/N=C(\N)CNCCCNCCCNCCCN [FA prodrug, (3R, 4S,5S,8S,9S,10S,11R,13R,14S,16S,Z)-17-((Z)-1,14-diamino-22-methyl-17-oxo-16-oxa-4,8,12,15-tetraazatricosa-14,21-dien-18-ylidene)-3,11-dihydroxy-4,8,10,14-tetramethylhexadecahydro-1H-cyclopenta[a]phenanthren-16-yl acetate]
- MIC ([1]; PA14): 8 µg/mL
- MIC ([2]; MG1655, read-out: E. coli MG1655 MIC): 4 µg/mL
- MIC ([2]; MG1655, read-out: MIC E. coli MG1655): 4 µg/mL
- inner membrane depolarization (DiSC3 (5) fluorescence) [4]: dose-dependent inner membrane depolarization
- period of hydrolysis to fusidic acid [5]: 48 h
